Reference: publication PMC9598656, “In Vitro Activity of Robenidine Analogues NCL259 and NCL265 against Gram-Negative Pathogens” (Antibiotics, 2022)

Key:
A. baumannii ATCC 12457 = experiment: Checkerboard assay with PMB; assay type: cell-based, Acinetobacter baumannii; details: for MIC, Combination: NCL259 or NCL265 with PMB; for Combination Effect / FICI: with PMB
Protocol: (§1) MICs of NCL259 or NCL265 in the presence of the efflux pump inhibitor, PAβN were determined using a checkerboard assay. […] Briefly, a two-fold serial dilution of each antimicrobial solution was prepared in its appropriate solvent (e.g., DMSO for robenidine analogues and Milli-Q water for PAβN), and 1 μL of each dilution was added from wells 12 to 3 (12.8–0.25 μg/mL for robenidine analogues, and 32–2 μg/mL for PAβN). Thereafter, 89 μL of LB broth was added to each well followed by the addition of 10 μL of bacterial suspension (1–5 × 10^6 CFU/mL) to each well. In this manner, the final concentration of DMSO in each well was 1%. The plate was subsequently incubated at 37 °C for 24 h. The resazurin assay was used for assessment of drug susceptibility of NCL259 and NCL265 (Supplementary Table S1–S6). The same method was also used to test the MICs of NCL259 or NCL265 in the presence of PMB against a range of Gram-negative reference strains (E. coli ATCC 25922, E. coli ATCC 10763, P. aeruginosa PAO1, P. aeruginosa ATCC 27853, A. baumannii ATCC 12457, A. baumannii ATCC 19606, K. pneumoniae ATCC 4352 and K. pneumoniae ATCC 33495). Stock solutions were prepared prior to use (25.6–0.25 mg/mL for robenidine analogues; 12.8–0.25 mg/mL for PMB). The interaction of two antibiotics was calculated as the fractional inhibitory concentration index (FICI) using the following formula:(1) FICI=MICA in combination/MICA alone+MICB in combination/MICB alone where A is NCL259 or NCL265 and B is PAβN or PMB. According to FICI calculations, the interaction between two compounds were interpreted as follows: synergistic (FICI ≤ 0.5); additive or partially synergistic (0.5 < FICI ≤ 1); indifferent (1 < FICI ≤ 4); and antagonistic (FICI > 4), as described previously. The dose reduction index (DRI) was used to describe the difference between the effective doses of NCL259 or NCL265 in combination with PMB or PAβN in comparison to their individual doses, using the following formula:(2) DRI=MICA alone/MICA in combination
(§2) Evaluation of DRI is important clinically because it can allow the dose of a potentially toxic drug to be lowered in combination with another compound without reducing the drug’s efficacy. A DRI higher than 1 is viewed as beneficial.

A. baumannii ATCC 19606 = experiment: Checkerboard assay with PMB; assay type: cell-based, Acinetobacter baumannii; details: for MIC, Combination: NCL259 or NCL265 with PMB; for Combination Effect / FICI: with PMB
Protocol: as §1, §2

K. pneumoniae ATCC 33495 [1] = experiment: MIC, broth micro-dilution; assay type: cell-based, Klebsiella pneumoniae; details: Klebsiella pneumoniae, ATCC33495, read-out: MIC, Single Drug
Protocol: (§3) A variety of Gram-negative reference strains (E. coli ATCC 25922, E. coli ATCC 10763, P. aeruginosa PAO1, P. aeruginosa ATCC 27853, A. baumannii ATCC 12457, A. baumannii ATCC 19606, K. pneumoniae ATCC 4352 and K. pneumoniae ATCC 33495) were used for initial screening and combination testing with PMB. The organisms were speciated using biochemical testing and MALDI-TOF mass spectrometry (Bruker, Preston, VIC, Australia). Activity testing of NCL259 and NCL265 was also carried out on 51 extraintestinal clinical E. coli isolates from companion animals, and 83 porcine and bovine enterotoxigenic E. coli (ETEC) isolates from the Australian Centre for Antimicrobial Resistance Ecology collection. E. coli wild-type (BW 25113) and its mutant BW 25113∆AcrB, in which the inner membrane component AcrB of the tripartite multidrug efflux system AcrA/AcrB/TolC has been deleted, were obtained from the bacterial collection held at Health and Biomedical Innovation, Clinical and Health Sciences, The University of South Australia. All isolates were cultured on sheep blood agar (SBA) plates at 37 °C for 18 h before being subcultured into Luria Bertaini (LB) (Oxoid, Scoresby, VIC, Australia) broth and grown to A600nm = 0.5 (equivalent to approx. 1.5 × 10^8 colony-forming units (CFU)/mL).
(§4) MICs for NCL259 and NCL265 (serial two-fold dilutions commencing at 256 µg/mL) were determined (in duplicate) in round bottom 96–well microtitre trays (Sarstedt 82.1582.001), using the broth micro-dilution method recommended by the Clinical and Laboratory Standards Institute (CLSI). We have shown previously that robenidine can chelate calcium ions from cation-adjusted Mueller-Hinton broth, which causes the loss of activity of robenidine. Therefore, LB broth was used in this study. Additionally, considering the low solubility of robenidine and its analogues in aqueous solutions, two-fold serial dilutions of stock solutions of these compounds were prepared in 100% DMSO [21]. The MIC for ampicillin against each isolate was determined for each test to serve as an internal quality control. The MICs of isolates were determined by visual reading and using an EnSpire Multimode Plate Reader 2300 at A600nm.

K. pneumoniae ATCC 4352 [2] = experiment: MIC, broth micro-dilution; assay type: cell-based, Klebsiella pneumoniae; details: Klebsiella pneumoniae, ATCC4352, read-out: MIC, Single Drug
Protocol: as §3, §4

E. coli BW 25113 (∆AcrB) = experiment: MIC, efflux-pump mutant; assay type: cell-based, Escherichia coli; details: for reduction of MIC in the ∆AcrB mutant compared to wild-type: E. coli BW 25113 ∆AcrB vs wild-type parent; for MIC: Escherichia coli, read-out: MIC Values
Protocol: as §3, §4

K. pneumoniae ATCC 33495 [3] = experiment: Checkerboard assay with PMB; assay type: cell-based, Klebsiella pneumoniae; details: for MIC, Combination: NCL259 or NCL265 with PMB; for Combination Effect / FICI: with PMB
Protocol: as §1, §2

K. pneumoniae ATCC 4352 [4] = experiment: Checkerboard assay with PMB; assay type: cell-based, Klebsiella pneumoniae; details: for MIC, Combination: NCL259 or NCL265 with PMB; for Combination Effect / FICI: with PMB
Protocol: as §1, §2

E. coli ATCC 10763 = experiment: MIC, broth micro-dilution; assay type: cell-based, Escherichia coli; details: Escherichia coli, ATCC10763, read-out: MIC, Single Drug
Protocol: as §3, §4

E. coli ATCC 25922 = experiment: MIC, broth micro-dilution; assay type: cell-based, Escherichia coli; details: Escherichia coli, ATCC25922, read-out: MIC, Single Drug
Protocol: as §3, §4

[5] = system: human Gram-negative isolates comprising 19 E. aerogenes, 20 E. coli, 19 E. cloacae, 20 K. pneumoniae and 16 K. oxytoca; design: method as in PMID 30318716; details: panel of human Gram-negative isolates; cited from earlier work

Row | SMILES | MIC, Combination (A. baumannii ATCC 12457) [µg/mL] | Combination Effect (A. baumannii ATCC 12457) | FICI (A. baumannii ATCC 12457) | MIC, Combination (A. baumannii ATCC 19606) [µg/mL] | Combination Effect (A. baumannii ATCC 19606) | FICI (A. baumannii ATCC 19606) | MIC (K. pneumoniae ATCC 33495 [1]) [µg/mL] | MIC (K. pneumoniae ATCC 4352 [2]) [µg/mL] | reduction of MIC in the ∆AcrB mutant compared to wild-type (E. coli BW 25113 (∆AcrB)) [fold] | MIC (E. coli BW 25113 (∆AcrB)) [µg/mL] | MIC, Combination (K. pneumoniae ATCC 33495 [3]) [µg/mL] | Combination Effect (K. pneumoniae ATCC 33495 [3]) | FICI (K. pneumoniae ATCC 33495 [3]) | MIC, Combination (K. pneumoniae ATCC 4352 [4]) [µg/mL] | Combination Effect (K. pneumoniae ATCC 4352 [4]) | FICI (K. pneumoniae ATCC 4352 [4]) | MIC (E. coli ATCC 10763) [µg/mL] | MIC (E. coli ATCC 25922) [µg/mL] | MIC range [5] [µg/mL] | further results
1 | [H]/N=C(\N)NN=C(CCCCCC)c1ccc(Cl)cc1 [NCL265, (E)-2-(1-(4-chlorophenyl)heptylidene)hydrazine-1-carboximidamide] | 0.5 | Additivity (additive or partially synergistic, 0.5 < FICI ≤ 1) | 0.75 | 0.5 | Additivity (additive or partially synergistic, 0.5 < FICI ≤ 1) | 0.75 | 64 | 2 | 16 | 1 | 2 | Synergism (synergistic, FICI ≤ 0.5) | 0.281 | 0.5 | Synergism (synergistic, FICI ≤ 0.5) | 0.5 | 64 | 4 | 2 to 64 | Dose Reduction Index (DRI) PMB:NCL265 (A. baumannii ATCC 12457; PMB + NCL265): 4; Dose Reduction Index (DRI) PMB:NCL265 (A. baumannii ATCC 19606; PMB + NCL265): 4; Dose Reduction Index (DRI) PMB:NCL265 (K. pneumoniae ATCC 33495 [3]; PMB + NCL265): 32; Dose Reduction Index (DRI) PMB:NCL265 (K. pneumoniae ATCC 4352 [4]; PMB + NCL265): 4:4
2 | [H]/N=C(\N)NN=C(CC1CCCCC1)c1ccc(Cl)cc1 [NCL259, (E)-2-(1-(4-chlorophenyl)-2-cyclohexylethylidene)hydrazine-1-carboximidamide] | 1 | Additivity (additive or partially synergistic, 0.5 < FICI ≤ 1) | 0.625 | 1 | Additivity (additive or partially synergistic, 0.5 < FICI ≤ 1) | 0.625 | 64 | 8 | 16 | 4 | 1 | Additivity (additive or partially synergistic, 0.5 < FICI ≤ 1) | 0.516 | 1 | Synergism (synergistic, FICI ≤ 0.5) | 0.375 | 64 | 16 | 2 to 64 | Dose Reduction Index (DRI) PMB:NCL259 (A. baumannii ATCC 12457; PMB + NCL259): 8; Dose Reduction Index (DRI) PMB:NCL259 (A. baumannii ATCC 19606; PMB + NCL259): 8; Dose Reduction Index (DRI) PMB:NCL259 (K. pneumoniae ATCC 33495 [3]; PMB + NCL259): 64; Dose Reduction Index (DRI) PMB:NCL259 (K. pneumoniae ATCC 4352 [4]; PMB + NCL259): 8
